Measurements: ChEMBL document CHEMBL3044528, “Potential new fungicides: N-acyl-5-methyl-3(2H)-isoxazolone derivatives” (2012)

Legend:
Type in all cases: functional
Pyrenophora graminea = test: Fungicidal activity against Pyrenophora graminea IFO-7507 assessed as mycelial growth inhibition at 25 mg/L after 3 days; details: IFO-7507, 72 h, read-out: GI
Fusarium graminearum = test: Fungicidal activity against Fusarium graminearum H3 assessed as mycelial growth inhibition at 25 mg/L after 3 days; details: H3, 72 h, read-out: GI
Microdochium nivale = test: Fungicidal activity against Microdochium nivale IFO-7432 assessed as mycelial growth inhibition at 25 mg/L after 3 days; details: IFO-7432, 72 h, read-out: GI
Alternaria alternata = test: Fungicidal activity against Alternaria alternata APS-38 assessed as mycelial growth inhibition at 25 mg/L after 3 days; details: APS-38, 72 h, read-out: GI
Rhizoctonia solani = test: Fungicidal activity against Rhizoctonia solani ET0007 assessed as mycelial growth inhibition at 25 mg/L after 1 day; details: ET0007, 24 h, read-out: GI
Zymoseptoria tritici = test: Fungicidal activity against Zymoseptoria tritici S3 assessed as mycelial growth inhibition at 25 mg/L after 14 days; details: S3, 336 h, read-out: GI
Gaeumannomyces graminis = test: Fungicidal activity against Gaeumannomyces graminis MAFF305168 assessed as mycelial growth inhibition at 25 mg/L after 1 day; details: MAFF305168, 24 h, read-out: GI
Cercospora beticola = test: Fungicidal activity against Cercospora beticola Be-2-6 assessed as mycelial growth inhibition at 25 mg/L after 7 days; details: Be-2-6, 168 h, read-out: GI
Rhynchosporium secalis = test: Fungicidal activity against Rhynchosporium secalis IFO-5290 assessed as mycelial growth inhibition at 25 mg/L after 14 days; details: IFO-5290, 336 h, read-out: GI

SMILES | inhibition of growth at 25 µg/mL (Pyrenophora graminea) | inhibition of growth at 25 µg/mL (Fusarium graminearum) | inhibition of growth at 25 µg/mL (Microdochium nivale) | inhibition of growth at 25 µg/mL (Alternaria alternata) | inhibition of growth at 25 µg/mL (Rhizoctonia solani) | inhibition of growth at 25 µg/mL (Zymoseptoria tritici) | inhibition of growth at 25 µg/mL (Gaeumannomyces graminis) | inhibition of growth at 25 µg/mL (Cercospora beticola) | inhibition of growth at 25 µg/mL (Rhynchosporium secalis)
Cc1cc(=O)n(Cc2ccccc2)o1 | 46% | 6% | 4% | 9% | 10% | 6% | 0% | 4% | 0%
CC(=O)n1oc(C)cc1=O | 72% | 50% | 79% | 90% | 26% | 98% | 72% | 92% | 100%
CCC(=O)n1oc(C)cc1=O | 88% | 32% | 68% | 87% | 22% | 69% | 50% | 94% | 100%
Cc1cc(=O)n(C(=O)C(C)(C)C)o1 | 95% | 40% | 82% | 84% | 43% | 64% | 83% | 85% | 100%
Cc1cc(=O)n(C(=O)CCl)o1 | 89% | 28% | 72% | 81% | 19% | 70% | 66% | 94% | 100%
COCC(=O)n1oc(C)cc1=O | 82% | 37% | 45% | 62% | 68% | 63% | 54% | 91% | 100%
Cc1cc(=O)n(C(=O)CC(C)(C)C)o1 | 76% | 47% | 76% | 64% | 71% | 70% | 97% | 93% | 96%
Cc1cc(=O)n(C(=O)CCC(F)(F)F)o1 | 46% | 32% | 54% | 61% | 57% | 65% | 60% | 89% | 98%
CSCCC(=O)n1oc(C)cc1=O | 76% | 37% | 50% | 64% | 62% | 67% | 58% | 92% | 99%
Cc1cc(=O)n(C(=O)Cc2ccccc2)o1 | 71% | 32% | 51% | 67% | 5% | 83% | 66% | 84% | 99%
Cc1cc(=O)n(C(=O)C(C)c2ccccc2)o1 (stereo not given) | 74% | 33% | 55% | 48% | 20% | 83% | 5% | 86% | 99%
Cc1cc(=O)n(C(=O)C(C)(C)Oc2ccc(Cl)cc2)o1 | 81% | 6% | 23% | 53% | 3% | 73% | 29% | 74% | 100%
Cc1cc(=O)n(C(=O)c2ccccc2I)o1 | 92% | 36% | 61% | 33% | 57% | 47% | 25% | 88% | 100%
Cc1cc(C)c(C(=O)n2oc(C)cc2=O)c(C)c1 | 90% | 10% | 4% | 22% | 3% | 10% | 22% | 11% | 0%
Cc1cc(=O)n(C(=O)c2c(F)c(F)c(F)c(F)c2F)o1 | 87% | 22% | 36% | 60% | 5% | 56% | 0% | 90% | 100%
Cc1cc(=O)n(C(=O)/C=C/c2ccccc2)o1 | 90% | 26% | 59% | 67% | 92% | 62% | 0% | 91% | 100%
Cc1cc(=O)n(C(=O)/C=C/c2ccc(Cl)cc2)o1 | 77% | 43% | 45% | 54% | 66% | 77% | 20% | 77% | 100%
Cc1cc(=O)n(C(=O)C#Cc2ccccc2)o1 | 73% | 23% | 41% | 72% | 17% | 83% | 3% | 88% | 98%
Cc1cc(=O)n(C(=O)C2(c3ccccc3)CC2(Cl)Cl)o1 (stereo not given) | 89% | 32% | 58% | 50% | 46% | 69% | 9% | 85% | 99%
Cc1cc(=O)n(C(=O)C2(C)C(C)(C)C2(Cl)Cl)o1 (stereo not given) | 79% | 20% | 36% | 31% | 24% | 50% | 0% | 80% | 87%
Cc1cc(=O)n(C(=O)C2CCc3ccccc3C2)o1 (stereo not given) | 73% | 40% | 82% | 64% | 50% | 95% | 57% | 80% | 100%
Cc1cc(=O)n(C(=O)/C=C/c2ccoc2)o1 | 96% | 44% | 68% | 60% | 90% | 53% | 72% | 91% | 100%
Cc1cc(=O)n(C(=O)/C=C/c2cccs2)o1 | 89% | 40% | 60% | 54% | 75% | 78% | 16% | 77% | 100%
Cc1cc(=O)n(C(=O)/C=C/c2ccsc2)o1 | 97% | 32% | 69% | 50% | 100% | 61% | 45% | 90% | 100%
Cc1cc(=O)n(C(=O)CCCCC(=O)n2oc(C)cc2=O)o1 | 91% | 27% | 61% | 81% | 18% | 52% | 56% | 93% | 100%
